Experimental data as given in publication PMC7138817, “The [4Fe-4S] cluster of sulfurtransferase TtuA desulfurizes TtuB during tRNA modification in Thermus thermophilus” (Communications Biology, 2020).
The star is where a group is joined. thiocarboxylate = C-terminal -COSH in place of -COOH, S*

T1: holo-TtuA (Thermus thermophilus, UniProt Q72LF3)
T1 construct: TtuA without TtuB, prepared as in an earlier publication
T1 sequence (Q72LF3 1-321): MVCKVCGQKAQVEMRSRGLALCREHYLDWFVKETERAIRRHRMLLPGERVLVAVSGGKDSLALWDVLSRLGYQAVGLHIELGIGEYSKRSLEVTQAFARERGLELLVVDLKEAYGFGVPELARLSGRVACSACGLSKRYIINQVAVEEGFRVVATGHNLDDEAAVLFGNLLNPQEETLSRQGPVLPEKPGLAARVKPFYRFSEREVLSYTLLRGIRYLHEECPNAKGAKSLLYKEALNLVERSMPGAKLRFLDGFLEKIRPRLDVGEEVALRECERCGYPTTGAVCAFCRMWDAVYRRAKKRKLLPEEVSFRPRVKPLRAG

T2: holo-TtuA (purified alone, with [4Fe-4S] cluster) used for EPR with added TtuB-COSH (Thermus thermophilus, UniProt Q72LF3 1-321)
T2 construct: TtuA, Thermus thermophilus; carries a [4Fe-4S] cluster, reduced with sodium dithionite for EPR; also called DT-reduced TtuA; source: purified
T2 sequence (looked up): T1 sequence (Q72LF3 1-321)

B1: TtuB-COSH (TtuB with thiocarboxylated C-terminus) (natural protein, Thermus thermophilus, UniProt Q72LF4 1-65, looked up)
chain: MRVVLRLPERKEVEVKGNRPLREVLEELGLNPETVVAVRGEELLTLEDEVREEDTLEVLSAISGG-thiocarboxylate
notes: TtuB, ubiquitin-like sulfur donor protein, Thermus thermophilus; also called thiocarboxylated TtuB

Experiments:
[1] = biological target: T1, holo-TtuA; experiment: EPR spectroscopy, X-band, […] K; format: binding; conditions: dithionite-reduced, anaerobic, no TtuB
[2] = biological target: T3, holo-TthTtuA–TthTtuB complex (Thermus thermophilus, UniProt Q72LF3+Q72LF4); experiment: X-ray crystal structure, […] Å; format: binding; conditions: reconstituted with ferric chloride and sulfide, anaerobic; bound by three Cys of TtuA, unique Fe coordinated by C-terminal carboxylate of TtuB
T3 construct: gene ttuA; co-expressed in E. coli B834(DE3) from pETDuet-1; His6-tag plus four residues at N-terminus of TtuB, TtuA untagged; TtuB-COOH form; TtuA-TtuB heterodimers

[3] = biological target: T2, holo-TtuA (purified alone, with …); experiment: EPR spectroscopy; purified holo-TtuA mixed with TtuB-COSH (molar ratio 1:3, 0.6 mM:2.0 mM), incubated at 298 K for 5 min, reduced with sodium dithionite, frozen; X-band spectra at 7, 12 and 29 K; compared with TtuA without TtuB-COSH; conditions: both partners purified

| Molecule | EPR spectroscopy, X-band, 12 K [1] | X-ray crystal structure, 2.2 Å [2] | binding result [3] |
| --- | --- | --- | --- |
| [S]12[Fe]3[S]4[Fe]1[S]1[Fe]2[S]3[Fe]41 [[4Fe-4S] cluster] | TtuA in the absence of TtuB-COSH is the typical rhombic signal of the [4Fe-4S] cluster | unique Fe site of the [4Fe-4S] cluster and the C-terminus of TtuB was observed |  |
| B1 |  |  | binds |
